Reference: patent publication US12440457B2, “Methods of treating suicidality” (Seelos Therapeutics, Inc., priority 2020, dated 2025)

Experiments:
[1] = Pham et al. 2018; cited from earlier work
[2] = test system: adults with major depressive disorder at imminent risk of suicide; test: Phase 2 study, CADSS dissociation
[3] = test system: adults with major depressive disorder at imminent risk of suicide; test: Phase 2 study, S-STS CMCM Risk of Suicide at Within the Next 7 Days; format: in vivo, human
From the text: FIGS. 21A-21B are a table (FIG. 21A) and a graph (FIG. 21B) describing the STS CMCM (“risk of suicide at within the next 7 day”) scores for Subject 1 and Subject 2 from Day 1 to Day 9 described in Example 3 of the study.
(§1) The S-STS CMCM (version 01/01/19) is a clinician-rated outcome measure which assesses SIB on a standard 22-item scale, as well as multiple patient and clinician-rated items. The first 16 items are rated on a Likert-type scale ranging from “not at all” (0) to “extremely” (4), where select scoring (i.e., 4 specific items are scored based on the highest score on 2 of those items) yields a total score ranging from 0 to 52. The final 6 items are used only when the patient misses a visit and is unable to complete the scale; if that missed visit is due to attempted or completed suicide, the possible maximum score is 100. The CMCM also yields 5 different single-item global assessments: 1) subject-rated likelihood of a suicide attempt; 2) subject-rated treatment needed; 3) clinician global severity of suicidal impulses, thoughts, and behaviors; 4) clinician judgment of suicide risk at this time and level of management needed for suicidality; and 5) clinician judgment of subject's likelihood of making a suicide attempt or of dying by suicide in the next 7 days.
(§2) The secondary endpoints will be the change from baseline at 24 hours, as well as at Day 16, in the following: • (1) S-STS total score • (2) MADRS total score at Day 16 (only) • (3) Clinical Global Impression (CGI) of Severity for SI/B (CGIS-SI/B) and Change in SI/B (CGIC-SI/B) • (4) Patient Global Impression (PGI) of Severity for SI/B (PGIS-SI/B) and Change in SI/B (PGIC-SI/B • (5) S-STS Clinician-Rated Global Severity of Suicidal Impulses, Thoughts, and Behaviors • (6) S-STS Clinician judgment of subject's risk of a suicide attempt or death by suicide at this time • (7) S-STS Clinician judgment of subject's likelihood (risk) of making a suicide attempt or of dying by suicide in the next 7 days • (8) S-STS Subject-rated global severity of suicidal impulses, thoughts, and behavior • (9) S-STS Subject-rated treatment needed score • (10) MADRS item 10 response rate (response ≤3) • (11) MADRS response (total score ≥50% reduction from baseline) • (12) MADRS remission (total score ≤12) Exploratory Endpoint:
(§3) This study is currently underway.

[4] = Leung and Baillie 1986; cited from earlier work
[5] = test system: adults with major depressive disorder at imminent risk of suicide; test: Phase 2 study, S-STS CMCM total score; format: in vivo, human
From the text: The S-STS CMCM (version 01/01/19) is a clinician-rated outcome measure which assesses SIB on a standard 22-item scale, as well as multiple patient and clinician-rated items. The first 16 items are rated on a Likert-type scale ranging from “not at all” (0) to “extremely” (4), where select scoring (i.e., 4 specific items are scored based on the highest score on 2 of those items) yields a total score ranging from 0 to 52. The final 6 items are used only when the patient misses a visit and is unable to complete the scale; if that missed visit is due to attempted or completed suicide, the possible maximum score is 100. The CMCM also yields 5 different single-item global assessments: 1) subject-rated likelihood of a suicide attempt; 2) subject-rated treatment needed; 3) clinician global severity of suicidal impulses, thoughts, and behaviors; 4) clinician judgment of suicide risk at this time and level of management needed for suicidality; and 5) clinician judgment of subject's likelihood of making a suicide attempt or of dying by suicide in the next 7 days. […]

[6] = test system: adults with major depressive disorder at imminent risk of suicide; test: Phase 2 study, S-STS CMCM risk of suicide at this time; format: in vivo, human
From the text: FIGS. 20A-20B are a table (FIG. 20A) and a graph (FIG. 20B) describing the STS CMCM (“risk of suicide at this time”) scores for Subject 1 and Subject 2 from Day 1 to Day 9 described in Example 3 of the study.
as §1, §2, §3

[7] = test system: adults with major depressive disorder at imminent risk of suicide; test: Phase 2 study, MADRS item 10 (suicidality); format: in vivo, human; settings: baseline 5
From the text: The Montgomery-Asberg Depression Rating Scale (MADRS) is a diagnostic questionnaire that can be used to measure the severity of a depressive episode in a subject. In some embodiments, the MADRS can be used to measure suicidal ideation. […]

[8] = test system: adults with major depressive disorder at imminent risk of suicide; test: Phase 2 study, overall preliminary outcome; format: in vivo, human; settings: two subjects, first eight days
From the text: as §3

[9] = test system: adults with major depressive disorder at imminent risk of suicide; test: Phase 2 study, MADRS total score; format: in vivo, human
From the text: The Montgomery-Asberg Depression Rating Scale (MADRS) is a diagnostic questionnaire that can be used to measure the severity of a depressive episode in a subject. In some embodiments, the MADRS can be used to measure suicidal ideation. For example, the MADRS includes 10 items directed to the following: 1) apparent sadness (e.g., representing despondency, gloom and despair that is more than just ordinary transient low spirits that is reflected in speech, facial expression, and posture); 2) reported sadness (e.g., representing reports of depressed mood, regardless of whether it is reflected in appearance or not and can include low spirits, despondency or the feeling of being beyond help and without hope); 3) inner tension (e.g., representing feelings of ill-defined discomfort, edginess, inner turmoil, mental tension mounting to either panic, dread or anguish); 4) reduced sleep (e.g., representing the experience of reduced duration or depth of sleep compared to the subject's own normal pattern when well); 5) reduced appetite (e.g., representing the feeling of a loss of appetite compared with when-well); 6) concentration difficulties (e.g., representing difficulties in collecting one's thoughts mounting to an incapacitating lack of concentration); 7) lassitude (e.g., representing difficulty in getting started or slowness in initiating and performing everyday activities); 8) inability to feel (e.g., representing the subjective experience of reduced interest in the surroundings, or activities that normally give pleasure, and the ability to react with adequate emotion to circumstances or people is reduced); 9) pessimistic thoughts (e.g., representing thoughts of guilt, inferiority, self-reproach, sinfulness, remorse and ruin); and 10) suicidal thoughts (e.g., representing the feeling that life is not worth living, that a natural death would be welcome, suicidal thoughts, and preparations for suicide). Each item is rated from 0 to 6, with 0 reflecting that the subject is not at all as described by the item and 6 reflecting that the subject is extremely like what is described by the item. […] As another example, for suicidal thoughts, a score of 0 can indicate that the subject enjoys life or takes it as it comes; a score of 2 can indicate that the subject is weary of life and may have fleeting suicidal thoughts; a score of 4 can indicate that the subject feels he or she would probably be better off dead (e.g., suicidal thoughts are common, and suicide is considered as a possible solution, but without specific plans or intention); and a score of 6 can indicate that the subject has explicit plans for suicide when there is an opportunity (e.g., the subject has made active preparations for suicide). […]

[10] = Subject 2, 24 hours post-administration, baseline 7

## CNC1(c2ccccc2Cl)CCCCC1=O (racemic) [intranasal racemic ketamine, racemic ketamine]
[1]
  antidepressant properties: exhibit antidepressant properties
[2]; Subject 1, all time points, clinical threshold score ≥4
  CADSS score (dissociation): zero
[2]; Subject 2, 40 minutes post-administration, clinical threshold score ≥4
  CADSS score (dissociation): 2
[2]; Subject 2, 1 hour post-administration
  CADSS score (dissociation): zero
[3]; Subject 1, 24 hours post-administration, baseline 5
  S-STS CMCM Risk of Suicide at Within the Next 7 Days score (range 1-10): 2
[3]; [10]
  S-STS CMCM Risk of Suicide at Within the Next 7 Days score (range 1-10): 1
[3]; the scores, Day 4
  S-STS CMCM Risk of Suicide at Within the Next 7 Days score (range 1-10): 1
[3]; the scores, Day 8
  S-STS CMCM Risk of Suicide at Within the Next 7 Days score (range 1-10): 0
[4]
  movement during the anesthetic recovery phase: increased movement
[5]; Subject 1, 24 hours post-administration, baseline 18
  S-STS CMCM score (range 0-52): zero
[5]; Subject 2, 24 hours post-administration, baseline 22
  S-STS CMCM score (range 0-52): 3
[6]; Subject 1, 24 hours post-administration, baseline 7
  S-STS CMCM score (range 0-9), risk of suicide at this time: 3
[6]; Subject 1, Day 9
  S-STS CMCM score (range 0-9), risk of suicide at this time: 2
[6]; [10]
  S-STS CMCM score (range 0-9), risk of suicide at this time: 3
[6]; Subject 2, Day 9
  S-STS CMCM score (range 0-9), risk of suicide at this time: zero
[6]; both subjects, Day 8
  S-STS CMCM score (range 0-9), risk of suicide at this time: 2
[7]; Subject 1, 24 hours post-administration
  MADRS item 10 (suicidality) score (range 0-6): 0
[7]; second subject (not given), 24 hours post-administration
  MADRS item 10 (suicidality) score (range 0-6): 0
[8]
  improvements in depression and suicidality, preliminary data: rapid, significant, and sustained improvements in depression and suicidality
  sedation or dissociation, preliminary data: no meaningful sedation or dissociation
[9]; Subject 1, 24 hours post-administration, 90 mg IN plus SOC, baseline 35
  MADRS total score: 8
[9]; Subject 2, 24 hours post-administration, 90 mg IN plus SOC, baseline 38
  MADRS total score: 15
[9]; Subject 2, Day 8, after second dose on Day 4
  MADRS total score: 16
[9]; both subjects, 24 hours post-administration
  reduction of MADRS total score: > 50%

## NC1(c2ccccc2Cl)CCCC(O)C1=O (centres unmarked) [6-hydroxynorketamine]
[1]
  antidepressant properties: exhibit antidepressant properties

## NC1(c2ccccc2Cl)CCCCC1=O (centres unmarked) [norketamine]
[4]
  movement during the anesthetic recovery phase: increased movement
